Where two headings read alike, the source gives them in different places.
Test system: Acinetobacter baumannii ATCC17961
Assay: Antimicrobial susceptibility testing: 90% growth inhibitory concentration (IC90) determination
Assay type: cell-based
Conditions: 90% growth inhibitory concentration against Acinetobacter baumannii ATCC17961, Iso-Sensitest broth, OD 600 nm over 16 h, read-out: ATCC 17961 IC90
In short: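 OD600 monitored each minute over 16 h at 35±2° C for bacteria (~5×10^5 CFU/mL final) in Iso-Sensitest medium with 10-point twofold compound series (e.g. 10-0.0195 μM final). Concentration giving 90% growth inhibition in log phase reported as IC90.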

[1] = Acinetobacter baumannii, ATCC17961, 16 h

| Compound | IC90 [1] | IC90 |
| --- | --- | --- |
| Cn1c(-c2cn(-c3ccc(NCCN)cn3)nc2C(F)(F)F)cnc1C(=O)Nc1ccc(C(=O)N2CCN(C(=O)C3CC[N+](C)(CC(=O)[O-])CC3)CC2)c(Cl)c1 (stereo not drawn) [Example 201, 2-[4-[4-[4-[[5-[1-[5-(2-aminoethylamino)-2-pyridyl]-3-(trifluoromethyl)pyrazol-4-yl]-1-methyl-imidazole-2-carbonyl]amino]-2-chloro-benzoyl]piperazine-1-carbonyl]-1-methyl-piperidin-1-ium-1-yl]acetate] | 682 nM |  |
| Cn1c(-c2cn(-c3ccc(N4CC[C@H](N)C4)cn3)nc2C(F)(F)F)cnc1C(=O)Nc1ccc(C(=O)N2CCN(C(=O)[C@H]3CC[N@+](CC(=O)O)(CC4CNC4)CC3)CC2)c(Cl)c1 [Example 202, cis-2-[4-[4-[4-[[5-[1-[5-[(3S)-3-aminopyrrolidin-1-yl]-2-pyridyl]-3-(trifluoromethyl)pyrazol-4-yl]-1-methyl-imidazole-2-carbonyl]amino]-2-chloro-benzoyl]piperazine-1-carbonyl]-1-(azetidin-3-ylmethyl)piperidin-1-ium-1-yl]acetic acid;formate] | 231 nM |  |
| cis-2-[4-[4-[4-[[5-[1-(4-Amino-2-fluoro-phenyl)-3-(difluoromethyl) pyrazol-4-yl]-1-methyl-imidazole-2-carbonyl]amino]-2-chloro-benzoyl]piperazine-1-carbonyl]-1-(azetidin-3-ylmethyl)piperidin-1-ium-1-yl]acetic Acid;2,2,2-trifluoroacetate [Example 128] |  | 358 nM |

From patent publication US20250179066A1, “ZWITTERIONIC ANTIBACTERIAL COMPOUNDS” (Hoffmann-La Roche Inc., priority 2022, published 2025)
